What all share (assay): NCI-60 cell line screen, 48 h
The test system of experiment [1] is COLO 205 colon.
Experiment [2] relates to M14 melanoma.
The test system of experiment [3] is CCRF-CEM leukemia.
Experiment [4] relates to SF-539 CNS.
The subject of experiment [5] is OVCAR-5 ovarian.
Experiment [6] relates to HCT-15 colon.
In experiment [7] the test system is RPMI-8226 leukemia.
Experiment [8] relates to MOLT-4 leukemia.
Experiment [9] relates to A498 renal.
For experiment [10], the system named is ACHN renal.

Molecules are shown by their SMILES.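 Five compound concentrations were applied to cells in 96-well plates for 48 hours; endpoints were derived by simple linear interpolation of the resulting dose-response curve. GI50: concentration for 50% inhibition of growth. At the TGI there is no net growth.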

On to `O=C1c2ccccc2C2(O)NC(=S)N(c3ccccc3)C12O` (centres undefined), for which the TGI in experiment [1], in experiment [2], in [3], in experiment [4], in [5] and in [6] was greater than 100 µM each time. Moreover, the TGI in experiment [7] and in experiment [8] was greater than 100 µM each time.

With `CCn1c(O)c(C=N)c(=O)n(CC)c1=O`, the TGI in experiment [1], in experiment [9], in experiment [10], in experiment [2], in [3] and in experiment [4] was greater than 100 µM throughout. Moreover, the TGI in [5], in [6] and in [8] was greater than 100 µM each time.

For `CCc1nc(N)nc(C(=O)NCCNC(=O)c2nc(N)nc(CC)c2C)c1C`, the TGI in [9], in experiment [10], in [2], in experiment [4], in [5] and in experiment [6] was greater than 100 µM in each case. The TGI in experiment [7] and in experiment [8] was greater than 100 µM throughout.

Turning to `CN1CCCCCC(=N\O)/C(=N/O)CCCCC1`, the TGI in [9], in experiment [10], in experiment [2], in experiment [3], in experiment [4] and in experiment [5] was greater than 100 µM each time. Moreover, the TGI in experiment [6] and in experiment [8] was greater than 100 µM throughout.

`CC/C(=C(/CC)c1ccc(O)cc1)c1ccc([O-])cc1.CC/C(=C(/CC)c1ccc(O)cc1)c1ccc([O-])cc1.O=C([CH-]C(=O)c1ccccc1)c1ccccc1.O=C([CH-]C(=O)c1ccccc1)c1ccccc1.[Ti+4]`: the GI50 in experiment [1] was 33.8 µM; in experiment [10], 20.5 µM; in experiment [2], 8.34 µM; in experiment [3], 4.57 µM; in experiment [5], 23.9 µM; in [6], 6.8 µM. The GI50 in experiment [7] was 30.5 µM; in experiment [8], 4.93 µM. Also, the TGI in experiment [1] is greater than 100 µM; in [10], 72.8 µM; in experiment [3] it was greater than 100 µM; in [5], 46.7 µM; in [6] it was 32.3 µM; in [7], greater than 100 µM. This molecule had a TGI in [8] greater than 100 µM.

For `Cc1nc2cc(N)c(F)cc2[nH]1`, the TGI in [1], in experiment [9], in [10], in experiment [3], in experiment [4] and in [5] was greater than 100 µM throughout. Moreover, the TGI in [8] was greater than 100 µM.

Turning to `CCCC(C)C[C@@H](C)CC(C)/C=C(\C)c1oc(=O)c(C)c(O)c1C` (some centres undefined) (tested in a mixture with another compound), the TGI in experiment [1] stood at 46 µM; in [10], 17.9 µM; in experiment [2] it was 29.1 µM; in [4], 30.1 µM; in experiment [5], 17.5 µM.

As to `Nc1ncn(C2C=C(CO)C(O)C2O)c(=O)n1` (centres undefined), the TGI in experiment [1] was 74.2 µM; in [9], greater than 100 µM; in experiment [10], greater than 100 µM; in experiment [2] it was greater than 100 µM; in [4] it was greater than 100 µM; in [6] it was greater than 100 µM. Besides, the TGI in experiment [7] and in experiment [8] was greater than 100 µM each time.

As to `CCN(CC)CCNC(=O)c1nn(C)c(=S)[nH]c1=S`, the TGI in experiment [1], in experiment [10], in experiment [2], in experiment [3], in [4] and in experiment [5] was greater than 100 µM in each case. For the same molecule, the TGI in [6], in [7] and in experiment [8] was greater than 100 µM in each case.

Consider `COC(=O)C(=O)C(C#N)c1ccc(CC#N)cc1` (centres undefined), for which the TGI in [10], in experiment [2], in [3], in experiment [4], in [6] and in experiment [7] was greater than 100 µM throughout. In experiment [8], this molecule had a TGI greater than 100 µM.

For `O=C1NC(=S)NC(=O)C1=Cc1cccc2cc3ccccc3cc12`, the TGI in experiment [1] came out at 3.7 µM; in experiment [9], 3.63 µM; in experiment [10] it was 3.51 µM; in [2], 4.89 µM; in experiment [4], 3.1 µM; in experiment [5], 5.21 µM. The TGI in [6] stood at 4.07 µM; in experiment [8] it was 5.24 µM.

With `COc1ccc2c(c1)OC1=C(C(=O)OC1)C2c1cc(OC)c(OC)c(OC)c1` (centres undefined), the GI50 was 0.312 µM in [1]; 0.281 µM in experiment [9]; 1.27 µM in experiment [10]; 0.471 µM in [2]; 0.315 µM in experiment [3]; 4.3 µM in experiment [5]. Besides, the GI50 is 0.499 µM in experiment [6], 0.514 µM in [7] and 0.542 µM in experiment [8]. Besides, the TGI in experiment [1] is 0.974 µM; in experiment [9], 15.1 µM; in experiment [10], greater than 100 µM; in experiment [2], greater than 100 µM; in experiment [3] it was greater than 100 µM; in experiment [5], greater than 100 µM. The figures for the TGI in experiment [6], in [7] and in experiment [8] were greater than 100 µM, greater than 100 µM and greater than 47.2 µM, respectively.

As for `CC(=O)/C(=C\C1=CCCO1)C(=O)Nc1ccccc1C`, the TGI in [10], in [2], in experiment [3], in experiment [4], in experiment [5] and in experiment [6] was greater than 100 µM in each case. The TGI in experiment [7] and in experiment [8] was greater than 100 µM throughout.

`CC[O-].CC[O-].O=C1C(c2ccccc2)=C([O-])c2ccccc21.O=C1C(c2ccccc2)=C([O-])c2ccccc21.[Ti+4]`: the GI50 in [1], in experiment [10], in [2], in experiment [4], in [5] and in [6] was greater than 100 µM each time. In addition, the GI50 in experiment [7] is 30.3 µM; in experiment [8], greater than 100 µM. Also, the TGI in [1], in experiment [10], in experiment [2], in experiment [4], in [5] and in experiment [6] was greater than 100 µM each time. The TGI in experiment [7] is 99.5 µM; in experiment [8], greater than 100 µM.

With `Cc1ccc(NC(=O)CCC/C(CC(=O)c2ccc(Br)cc2)=N/NC(=O)CC#N)cc1`, the TGI in [1], in [10], in [2], in experiment [3], in experiment [5] and in experiment [7] was greater than 100 µM in each case. Moreover, the TGI in experiment [8] is greater than 100 µM.

Regarding `CCOC(=O)C1=C(Nc2ccc(Cl)cc2Cl)OC/C1=N\NS(=O)(=O)c1ccc(C)cc1`, the TGI in experiment [1], in experiment [9], in experiment [10], in experiment [2], in experiment [3] and in experiment [4] was greater than 100 µM throughout. Also, the TGI in experiment [5], in [6] and in experiment [8] was greater than 100 µM throughout.

With `Cc1cc(N2CCN(c3ccnc4cc(Cl)ccc34)CC2)nc(NC2CCCCC2)n1`, the GI50 is 1.65 µM in experiment [1]; 0.118 µM in [9]; 1.7 µM in experiment [2]; 2.71 µM in [3]; 1.55 µM in experiment [6]; 1.85 µM in experiment [7]. For the same molecule, the GI50 in experiment [8] was 2.38 µM. For the same molecule, the TGI in experiment [1] was 3.34 µM; in [9], 3.21 µM; in [2], 3.36 µM; in experiment [3], 10.1 µM; in experiment [6] it was 3.44 µM; in experiment [7] it was 4.8 µM. The molecule further returned a TGI in experiment [8] of 5.62 µM.

For `COC(=O)C12CC(c3ccccc31)C1C(=O)OC(=O)C12` (centres undefined), the TGI in experiment [1], in [10], in experiment [2], in [3], in [4] and in [5] was greater than 100 µM each time. In addition, the TGI in experiment [6], in experiment [7] and in experiment [8] was greater than 100 µM in each case.

For the molecule `COc1cccc(-c2nc3sccn3c2-c2ccnc(NCCNS(=O)(=O)c3ccccc3)c2)c1`, the GI50 is 1.87 µM in [1]; 2.22 µM in [10]; 2.84 µM in experiment [2]; 1.88 µM in experiment [3]; 4.98 µM in experiment [4]; 5.65 µM in experiment [5]. Moreover, the GI50 in experiment [6] is 2.55 µM; in [7], 1.05 µM; in experiment [8], 2.03 µM. Besides, the TGI in experiment [1] was 18.2 µM; in experiment [10], greater than 100 µM; in experiment [2] it was greater than 100 µM; in [3] it was greater than 100 µM; in [4], greater than 100 µM; in experiment [5] it was greater than 100 µM. Besides, the TGI was greater than 100 µM in [6], 3.65 µM in experiment [7] and greater than 100 µM in experiment [8].

On to `O=C([CH-]C(=O)c1ccccc1)c1ccccc1.O=C([CH-]C(=O)c1ccccc1)c1ccccc1.O=C([CH-]C(=O)c1ccccc1)c1ccccc1.[OH3+].[Y+3]`, for which the GI50 is 13.2 µM in experiment [1]; 16.3 µM in experiment [9]; 6.34 µM in experiment [10]; 9.36 µM in experiment [2]; 9.27 µM in experiment [4]; 16.9 µM in experiment [5]. In addition, the GI50 in experiment [6] is 4.96 µM; in experiment [7], 6.04 µM; in [8] it was 2.96 µM. The TGI in [1] was determined as 30.9 µM; in experiment [9], 43.1 µM; in [10] it was 21.9 µM; in experiment [2] it was 22 µM; in [4] it was 43.1 µM; in experiment [5], 66.1 µM. For the same molecule, the results for the TGI in experiment [6], in experiment [7] and in [8] were 22.8 µM, 32.2 µM and 20.5 µM, respectively.

Take `O=c1[nH]c2c3ccccc3ccc2c2cc3c(cc12)OCO3`: the TGI in [1], in experiment [10], in experiment [2], in experiment [3], in experiment [4] and in experiment [5] was greater than 100 µM each time. The TGI in experiment [6], in experiment [7] and in experiment [8] was greater than 100 µM each time.

For `CN(C)CC/C(=N\Nc1ccccc1)c1ccccc1`, the TGI in experiment [1] was 33.5 µM; in experiment [2], 4.73 µM; in [4] it was 32.6 µM; in [5], 30.9 µM; in [6], 27.6 µM; in experiment [7], greater than 100 µM. The same molecule came in with a TGI in experiment [8] greater than 100 µM.

`CCCCCCCCCCC(O)C1CCC(C(O)CCC(O)C2CCC(CCCCCCC[C@H](O)CC3=C[C@@H](C)OC3=O)O2)O1` (some centres undefined): the TGI in experiment [1] was greater than 100 µM; in experiment [9], greater than 82 µM; in [10] it was greater than 100 µM; in experiment [2], greater than 100 µM; in experiment [4] it was greater than 100 µM; in experiment [5], greater than 100 µM. In addition, the TGI in experiment [6], in experiment [7] and in experiment [8] was greater than 100 µM each time. Besides, the GI50 in experiment [10] is greater than 100 µM; in experiment [7] it was 6.36 µM.

For `C=C(C)CN(CC#N)CC(=C)C`, the TGI in experiment [1], in [9], in experiment [10], in [2], in experiment [3] and in experiment [5] was greater than 100 µM throughout. The TGI in experiment [6], in experiment [7] and in experiment [8] was greater than 100 µM throughout.

In the case of `O=c1ccnc2c1ccc1[nH]cccc12`, the TGI in [1], in experiment [9], in experiment [10], in experiment [2], in experiment [3] and in [4] was greater than 100 µM throughout. The TGI in [5], in [6] and in experiment [8] was greater than 100 µM each time.

For the origin of these results see PubChem BioAssay (NCI).
